Reference: ChEMBL document CHEMBL5104094, “Chemistry, biosynthesis and biological activity of terpenoids and meroterpenoids in bacteria and fungi isolated from different marine habitats” (Eur J Med Chem, 2021)

Columns and labels:
[1] = Antiproliferative activity against human IMC cells assessed as inhibition of cell proliferation incubated for 48 hrs by Coulter counter method; type: functional, cell-based
L1210 = assay: Antiproliferative activity against mouse L1210 cells assessed as inhibition of cell proliferation incubated for 48 hrs by Coulter counter method; type: functional, cell-based; settings: L1210, 48 h
HCT-116 = assay: Cytotoxicity against human HCT-116 cells assessed as cell growth inhibition by MTT assay; type: functional, cell-based
Candida albicans = assay: Antifungal activity against Candida albicans assessed as fungal growth inhibition by microbroth dilution method; type: functional
SW-620 = assay: Antitumor activity against human SW620 cells xenografted in BALB/c nude mouse assessed as tumor growth inhibition at 10 mg/kg/day, ip for 28 days relative to control; type: functional; settings: SW-620, 672 h, time 28 day, read-out: TGI
HL-60 = assay: Cytotoxicity against human HL-60 cells assessed as cell growth inhibition; type: functional, cell-based
Bel-7402 = assay: Cytotoxicity against human Bel-7402 cells assessed as cell growth inhibition; type: functional, cell-based
[2] = molecular target: Phosphotyrosine-protein phosphatase PTPB (Mycobacterium tuberculosis, UniProt P96830); assay: Inhibition of N-terminal His6-tagged full-length Mycobacterium tuberculosis H37Rv PTPB expressed in Escherichia coli BL21 (DH3) using fluorogenic phosphatase substrate by fluorescence based assay
NSCLC = assay: Cytotoxicity against human NSCLC cells assessed as cell growth inhibition incubated for 96 hrs by Cell Titer Glo assay; type: functional, cell-based
NCI-H1395 = assay: Cytotoxicity against human NCI-H1395 cells assessed as cell growth inhibition incubated for 96 hrs by Cell Titer Glo assay; type: functional, cell-based; settings: NCI-H1395, 96 h
HCC1395 = assay: Cytotoxicity against human HCC1395 cells assessed as cell growth inhibition incubated for 96 hrs by Cell Titer Glo assay; type: functional, cell-based; settings: HCC1395, 96 h
HepG2 = assay: Cytotoxicity against human HepG2 cells assessed as cell growth inhibition incubated for 72 hrs by SRB assay; type: functional, cell-based; settings: HepG2, 72 h
SF-268 = assay: Cytotoxicity against human SF-268 cells assessed as cell growth inhibition incubated for 72 hrs by SRB assay; type: functional, cell-based; settings: SF-268, 72 h
A549 = assay: Cytotoxicity against human A549 cells assessed as cell growth inhibition incubated for 72 hrs by SRB assay; type: functional, cell-based; settings: A549, 72 h
MCF7 = assay: Cytotoxicity against human MCF7 cells assessed as cell growth inhibition incubated for 72 hrs by SRB assay; type: functional, cell-based; settings: MCF7, 72 h
[3] = Suppression of spontaneous calcium oscillation amplitude in C57Bl/6J mouse primary neocortical neuron incubated for 15 mins by Fluo-4 dye based assay; type: functional, cell-based; settings: 0.25 h
[4] = Suppression of spontaneous calcium oscillation amplitude in 4-AP-induced C57Bl/6J mouse primary neocortical neuron incubated for 25 mins by Fluo-4 dye based assay; type: functional, cell-based
[5] = Suppression of spontaneous calcium oscillation frequency in 4-AP-induced C57Bl/6J mouse primary neocortical neuron incubated for 25 mins by Fluo-4 dye based assay; type: functional, cell-based
[6] = Suppression of spontaneous calcium oscillation frequency in C57Bl/6J mouse primary neocortical neuron incubated for 15 mins by Fluo-4 dye based assay; type: functional, cell-based; settings: 0.25 h
[7] = molecular target: Tyrosine-protein phosphatase non-receptor type 2 (Homo sapiens, UniProt P17706); assay: Inhibition of recombinant human TCPTP expressed in Escherichia coli using p-nitrophenyl phosphate as substrate preincubated for 15 mins followed by substrate addition measured after 60 mins by absorbance based assay
[8] = molecular target: Tyrosine-protein phosphatase non-receptor type 1 (Homo sapiens, UniProt P18031); assay: Inhibition of recombinant human PTP1B expressed in Escherichia coli using p-nitrophenyl phosphate as substrate preincubated for 15 mins followed by substrate addition measured after 60 mins by absorbance based assay
MDA-MB-435 = assay: Antiproliferative activity against human MDA-MB-435 cells assessed as inhibition of cell proliferation incubated for 24 hrs by MTT assay; type: functional, cell-based; settings: MDA-MB-435, 24 h
Androgen receptor = Androgen receptor (Homo sapiens, UniProt P10275); assay: Displacement of [3H]-DHT from recombinant androgen receptor (unknown origin) incubated for 3 hrs by liquid scintillation counter method
[9] = Cytotoxicity against human H7402 cells assessed as cell growth inhibition incubated for 24 hrs by MTT assay; type: functional, cell-based; settings: H7402, 24 h

Chain of Phosphotyrosine-protein phosphatase PTPB (P96830 whole entry): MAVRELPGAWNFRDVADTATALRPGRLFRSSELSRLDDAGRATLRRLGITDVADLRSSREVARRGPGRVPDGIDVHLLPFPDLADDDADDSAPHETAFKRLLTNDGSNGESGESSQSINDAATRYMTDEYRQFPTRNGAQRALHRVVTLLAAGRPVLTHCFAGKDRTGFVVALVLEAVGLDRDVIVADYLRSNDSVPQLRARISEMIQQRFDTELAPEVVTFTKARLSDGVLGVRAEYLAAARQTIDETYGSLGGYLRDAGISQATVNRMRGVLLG
Chain of Tyrosine-protein phosphatase non-receptor type 1 (P18031 whole entry): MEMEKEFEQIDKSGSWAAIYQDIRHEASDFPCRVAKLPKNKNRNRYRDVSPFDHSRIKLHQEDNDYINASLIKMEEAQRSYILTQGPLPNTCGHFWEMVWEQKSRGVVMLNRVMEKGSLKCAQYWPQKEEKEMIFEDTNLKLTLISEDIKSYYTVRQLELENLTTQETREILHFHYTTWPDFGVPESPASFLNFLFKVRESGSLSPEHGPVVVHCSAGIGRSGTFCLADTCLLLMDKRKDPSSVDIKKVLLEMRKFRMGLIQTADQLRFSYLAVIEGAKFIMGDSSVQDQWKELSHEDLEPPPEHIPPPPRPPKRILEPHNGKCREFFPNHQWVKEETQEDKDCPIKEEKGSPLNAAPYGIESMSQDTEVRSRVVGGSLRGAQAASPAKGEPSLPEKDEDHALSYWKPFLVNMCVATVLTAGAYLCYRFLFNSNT
Chain of Androgen receptor (P10275 whole entry): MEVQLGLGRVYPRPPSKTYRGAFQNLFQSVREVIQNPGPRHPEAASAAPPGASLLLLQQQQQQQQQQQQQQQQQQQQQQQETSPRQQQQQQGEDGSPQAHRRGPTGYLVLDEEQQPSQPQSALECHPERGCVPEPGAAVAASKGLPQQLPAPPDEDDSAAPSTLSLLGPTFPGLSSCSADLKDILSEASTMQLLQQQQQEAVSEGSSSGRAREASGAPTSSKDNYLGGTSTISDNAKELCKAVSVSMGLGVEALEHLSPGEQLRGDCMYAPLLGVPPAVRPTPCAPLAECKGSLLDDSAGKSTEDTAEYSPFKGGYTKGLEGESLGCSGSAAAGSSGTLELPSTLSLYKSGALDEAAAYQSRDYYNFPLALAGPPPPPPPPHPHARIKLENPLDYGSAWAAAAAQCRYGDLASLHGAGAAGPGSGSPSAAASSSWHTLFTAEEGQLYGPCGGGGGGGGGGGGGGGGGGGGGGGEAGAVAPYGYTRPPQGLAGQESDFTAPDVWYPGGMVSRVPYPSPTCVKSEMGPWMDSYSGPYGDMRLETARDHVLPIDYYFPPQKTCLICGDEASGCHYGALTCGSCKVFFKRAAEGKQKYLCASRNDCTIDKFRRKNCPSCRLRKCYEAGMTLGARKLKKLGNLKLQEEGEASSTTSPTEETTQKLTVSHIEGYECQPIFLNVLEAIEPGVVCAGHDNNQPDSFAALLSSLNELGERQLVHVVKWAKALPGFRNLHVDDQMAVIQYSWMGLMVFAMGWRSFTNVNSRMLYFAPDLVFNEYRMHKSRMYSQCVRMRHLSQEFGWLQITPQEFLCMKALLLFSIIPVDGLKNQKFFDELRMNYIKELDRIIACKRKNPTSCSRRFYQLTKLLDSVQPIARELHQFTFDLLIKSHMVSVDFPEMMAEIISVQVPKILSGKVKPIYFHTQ
Chain of Tyrosine-protein phosphatase non-receptor type 2 (P17706 whole entry): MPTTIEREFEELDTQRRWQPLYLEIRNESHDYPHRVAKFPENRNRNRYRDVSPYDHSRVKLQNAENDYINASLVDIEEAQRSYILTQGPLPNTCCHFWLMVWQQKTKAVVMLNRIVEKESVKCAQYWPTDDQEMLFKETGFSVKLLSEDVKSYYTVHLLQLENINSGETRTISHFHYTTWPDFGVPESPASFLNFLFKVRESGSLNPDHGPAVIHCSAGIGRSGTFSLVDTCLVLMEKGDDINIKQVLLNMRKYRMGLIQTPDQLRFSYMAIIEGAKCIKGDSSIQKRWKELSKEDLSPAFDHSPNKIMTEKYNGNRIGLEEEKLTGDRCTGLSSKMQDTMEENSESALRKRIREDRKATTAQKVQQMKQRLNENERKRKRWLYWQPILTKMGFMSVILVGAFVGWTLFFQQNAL

In the case of `CN1C=C(C(N)=O)[C@@H]2C[C@H](O)[C@@](NC(=O)CS(N)(=O)=O)(C(=O)O)[C@@H]2C1`, the IC50 [1] is reported as 0.82 µM and the IC50 (L1210) is reported as 0.84 µM.
For `CC1=C(Cn2c3ccc(Br)c(=O)c-3nc3ccccc32)CCC(C)(C)C1`, the IC50 (HCT-116) was 0.049 µM and the MIC (Candida albicans) was 0.95 µM.
Work on `C=C1C(=O)C=C2C=C3[C@@H](O)C(C)(C)C[C@@]3(O)[C@]12C` yielded an inhibition in vivo at 10 mg/kg/day (SW-620) of 50%.
In the case of `C[C@@H]1C=CC(=O)[C@@]2(C)CC[C@@H]3[C@@H]4[C@@](C)(CC[C@@]4(C)CO)C[C@@]132`, the IC50 (HL-60) is reported as 0.97 µM and the IC50 (Bel-7402) is reported as 0.038 µM.
`CC(C)[C@H]1CC[C@@]2(C)CC[C@]3(CO)CC4=C(C(=O)O)CC[C@H]4[C@]4(C)C[C@@H]4[C@H]3[C@H]12` gave an IC50 [2] of 18 µM.
In the case of `COc1cc2nc(C(=O)NCC(=O)O)sc2c(C/C=C(\C)CC/C=C(\C)CC/C=C(\C)CCC/C(C)=C\CC(=O)O)c1O`, the IC50 (NSCLC) is reported as 1.5 µM, the IC50 (NCI-H1395) is reported as 2.5 µM and the IC50 (HCC1395) is reported as 6.8 µM.
Compound `C=C(C)[C@H]1CC=C(C)[C@H]2C[C@H]3Cc4c(C)cc(O)cc4O[C@@]3(C)C[C@H]12` has an IC50 (HepG2) of 20 µM, an IC50 (SF-268) of 20 µM and an IC50 (A549) of 20 µM. The IC50 (MCF7) was 20 µM.
`CC1=CC[C@H](C(C)(C)O)[C@H]2C[C@]3(C)Oc4cc(O)cc(C)c4C[C@@H]3C[C@H]12` showed an IC50 (HepG2) of 20 µM, an IC50 (SF-268) of 20 µM and an IC50 (A549) of 20 µM. For the same compound, the IC50 (MCF7) was 20 µM.
Work on `C=C1CC[C@H]2C(C)(C)[C@@H](O)CC[C@]2(C)[C@H]1CC(=O)[C@]1(O)C=C(CSC[C@H](O)C(=O)OC)C(=O)C1` yielded an IC50 [3] of 1.8 µM, an IC50 [4] of 4.6 µM and an IC50 [5] of 10 µM. It also gave an IC50 [6] of 3.2 µM.
With `CC1(C)Oc2c(nc3c4c2C(=O)CC[C@]4(C)[C@@]2(C)c4[nH]c5ccccc5c4C[C@@H]2C3)[C@H]1O` the IC50 [7] was 1.7 µM and the IC50 [8] was 1.7 µM.
`COC(=O)N[C@H]1[C@@H](C)O[C@@H](O[C@H]2C/C=C(\C)[C@]3(C)CC[C@@H]4[C@@H](O[C@H]5C[C@@H](O[C@H]6C[C@@H](O)[C@@H](O[C@@H]7C[C@@H](O)[C@@H](OC)[C@H](C)O7)[C@H](C)O6)C[C@H](C)O5)[C@@H](C)C[C@H](C)[C@H]4[C@]3(C)C(=O)C3C(=O)OC4(C[C@@H](C)C(CO)=C[C@H]4/C=C/2C)C3=O)C[C@]1(C)N` (stereo partly drawn) gave an IC50 (MDA-MB-435) of 7.5 µM.
`C=C[C@@]1(C)CC[C@H]2C(C=C[C@H]3[C@H](CO)CC(=O)C[C@]23C)C1` (stereo partly drawn) gave an IC50 (Androgen receptor) of 9.71 µM.
`COC(=O)N[C@H]1[C@@H](C)O[C@@H](O[C@H]2C/C=C(\C)[C@]3(C)CC[C@@H]4[C@@H](O[C@H]5C[C@@H](O[C@H]6C[C@@H](O)[C@@H](O[C@@H]7C[C@@H](O)[C@@H](OC)[C@H](C)O7)[C@H](C)O6)C[C@H](C)O5)[C@@H](C)C[C@H](C)[C@H]4[C@]3(C)C(=O)C3C(=O)OC4(C[C@@H](C)C(CO)=C[C@H]4/C=C/2C)C3=O)C[C@]1(C)[N+](=O)[O-]` (stereo partly drawn) showed an IC50 [9] of 0.6 µM.
